# From patent US20010044437A1, “Methods for reducing uric acid levels” (priority 2000, published 2001)
# Test system: serum uric acid
# Test: Serum uric acid during 28-day once-daily oral dosing, placebo-controlled study in 48 subjects (Example 34)
# Type: in vivo, human
# Procedure: In another study, 48 subjects were divided into four groups, A, B, C and D, and administered the noted amount of the compound of Example 3. Each group was composed of 12 subjects of whom 9 received the compound and 3 received placebo. The non-placebo members of group A received 50 mg of compound, administered orally once a day for 28 days as a single 50 mg tablet. The non-placebo members of group B received 200 mg of compound administered orally once a day for 28 days as a single 200 mg tablet. The non-placebo members of group C received 500 mg of compound administered orally once a day for 28 days as two 50 mg tablets and two 200 mg tablets. The non-placebo members of group D received 800 mg of compound administered orally once a day for 28 days as four 200 mg tablets. The 3 placebo members of each group, received an amount of placebo, as a tablet, equivalent to the amount of test compound—50 mg placebo for group A, 200 mg placebo for group B, 500 mg placebo for group C and 800 mg placebo for group D. Each subject received a single dose of either compound or placebo for 28 days. The subjects were confined at the clinical site beginning the day before dose administration until 72 hours after the final dose administration on Day 28 and returned for an outpatient visit on Day 35.
# Uric acid levels were measured prior to beginning the study (screening), on the day immediately prior to commencement of the study (day-1), and then as noted in the table. Hours indicates the time since the last dose was administered. For example, Day 7, 0 hour indicates the time the serum uric acid level at the time the dose was administered and Day 7, 2 hour indicates the uric acid level two hours after the adminstration that day. Further, the Day 30, 60 hour level is the serum uric acid level measured 60 hours (on Day 30) after the last dose was administered on Day 28. The uric acid levels are presented in mg/dL as a mean of all subjects in each group.
smiles,measurement,setting,value
"O=C(O)Cn1cc(Cc2nc3c(F)c(F)cc(F)c3s2)c2ccccc21 [Example 3, 3-(4,5,7-Trifluorobenzothiazol-2-yl)methyl-indole-N-acetic Acid]",Uric Acid Level (mean of all subjects in each group),"group B 200 mg orally once a day, Day 7 24 Hour",2.70 mg/dL
same,Uric Acid Level (mean of all subjects in each group),"group B 200 mg orally once a day, Day 14 0 Hour",2.87 mg/dL
same,Uric Acid Level (mean of all subjects in each group),"group C 500 mg orally once a day, Day 1 0 Hour",5.16 mg/dL
same,Uric Acid Level (mean of all subjects in each group),"group C 500 mg orally once a day, Day 1 0.5 Hour",5.08 mg/dL
same,Uric Acid Level (mean of all subjects in each group),"group C 500 mg orally once a day, Day 1 1 Hour",4.81 mg/dL
same,Uric Acid Level (mean of all subjects in each group),"group C 500 mg orally once a day, Day 1 2 Hour",4.27 mg/dL
same,Uric Acid Level (mean of all subjects in each group),"group C 500 mg orally once a day, Day 1 3 Hour",3.84 mg/dL
same,Uric Acid Level (mean of all subjects in each group),"group C 500 mg orally once a day, Day 1 4 Hour",3.54 mg/dL
same,Uric Acid Level (mean of all subjects in each group),"group C 500 mg orally once a day, Day 1 6 Hour",3.30 mg/dL
same,Uric Acid Level (mean of all subjects in each group),"group C 500 mg orally once a day, Day 1 8 Hour",2.82 mg/dL
same,Uric Acid Level (mean of all subjects in each group),"group C 500 mg orally once a day, Day 1 10 Hour",2.59 mg/dL
same,Uric Acid Level (mean of all subjects in each group),"group C 500 mg orally once a day, Day 1 12 Hour",2.56 mg/dL
same,Uric Acid Level (mean of all subjects in each group),"group C 500 mg orally once a day, Day 1 16 Hour",2.36 mg/dL
same,Uric Acid Level (mean of all subjects in each group),"group C 500 mg orally once a day, Day 1 24 Hour",2.74 mg/dL
same,Uric Acid Level (mean of all subjects in each group),"group C 500 mg orally once a day, Day 3",2.21 mg/dL
same,Uric Acid Level (mean of all subjects in each group),"group C 500 mg orally once a day, Day 7 0 Hour",2.17 mg/dL
same,Uric Acid Level (mean of all subjects in each group),"group C 500 mg orally once a day, Day 7 0.5 Hour",2.21 mg/dL
same,Uric Acid Level (mean of all subjects in each group),"group C 500 mg orally once a day, Day 7 1 Hour",2.16 mg/dL
same,Uric Acid Level (mean of all subjects in each group),"group C 500 mg orally once a day, Day 7 2 Hour",2.04 mg/dL
same,Uric Acid Level (mean of all subjects in each group),"group C 500 mg orally once a day, Day 7 3 Hour",1.90 mg/dL
same,Uric Acid Level (mean of all subjects in each group),"group C 500 mg orally once a day, Day 7 4 Hour",1.88 mg/dL
same,Uric Acid Level (mean of all subjects in each group),"group C 500 mg orally once a day, Day 7 6 Hour",2.19 mg/dL
same,Uric Acid Level (mean of all subjects in each group),"group C 500 mg orally once a day, Day 7 8 Hour",2.10 mg/dL
same,Uric Acid Level (mean of all subjects in each group),"group C 500 mg orally once a day, Day 7 10 Hour",2.08 mg/dL
same,Uric Acid Level (mean of all subjects in each group),"group C 500 mg orally once a day, Day 7 12 Hour",1.92 mg/dL
same,Uric Acid Level (mean of all subjects in each group),"group C 500 mg orally once a day, Day 7 16 Hour",1.74 mg/dL
same,Uric Acid Level (mean of all subjects in each group),"group C 500 mg orally once a day, Day 7 24 Hour",2.23 mg/dL
same,Uric Acid Level (mean of all subjects in each group),"group C 500 mg orally once a day, Day-1 (before dosing)",5.10 mg/dL
same,Uric Acid Level (mean of all subjects in each group),"group C 500 mg orally once a day, Screening (before dosing)",5.28 mg/dL
same,Uric Acid Level (mean of all subjects in each group),"group D 800 mg orally once a day, Day 1 0 Hour",5.64 mg/dL
same,Uric Acid Level (mean of all subjects in each group),"group D 800 mg orally once a day, Day 1 0.5 Hour",5.57 mg/dL
same,Uric Acid Level (mean of all subjects in each group),"group D 800 mg orally once a day, Day 1 1 Hour",5.12 mg/dL
same,Uric Acid Level (mean of all subjects in each group),"group D 800 mg orally once a day, Day 1 2 Hour",4.46 mg/dL
same,Uric Acid Level (mean of all subjects in each group),"group D 800 mg orally once a day, Day 1 3 Hour",3.97 mg/dL
same,Uric Acid Level (mean of all subjects in each group),"group D 800 mg orally once a day, Day 1 4 Hour",3.66 mg/dL
same,Uric Acid Level (mean of all subjects in each group),"group D 800 mg orally once a day, Day 1 6 Hour",3.37 mg/dL
same,Uric Acid Level (mean of all subjects in each group),"group D 800 mg orally once a day, Day 1 8 Hour",2.81 mg/dL
same,Uric Acid Level (mean of all subjects in each group),"group D 800 mg orally once a day, Day 1 10 Hour",2.49 mg/dL
same,Uric Acid Level (mean of all subjects in each group),"group D 800 mg orally once a day, Day 1 12 Hour",2.42 mg/dL
same,Uric Acid Level (mean of all subjects in each group),"group D 800 mg orally once a day, Day 1 16 Hour",2.13 mg/dL
same,Uric Acid Level (mean of all subjects in each group),"group D 800 mg orally once a day, Day 1 24 Hour",2.64 mg/dL
same,Uric Acid Level (mean of all subjects in each group),"group D 800 mg orally once a day, Day 3",2.19 mg/dL
same,Uric Acid Level (mean of all subjects in each group),"group D 800 mg orally once a day, Day 7 0 Hour",2.18 mg/dL
same,Uric Acid Level (mean of all subjects in each group),"group D 800 mg orally once a day, Day 7 0.5 Hour",2.10 mg/dL
same,Uric Acid Level (mean of all subjects in each group),"group D 800 mg orally once a day, Day 7 1 Hour",2.07 mg/dL
same,Uric Acid Level (mean of all subjects in each group),"group D 800 mg orally once a day, Day 7 2 Hour",1.98 mg/dL
same,Uric Acid Level (mean of all subjects in each group),"group D 800 mg orally once a day, Day 7 3 Hour",1.90 mg/dL
same,Uric Acid Level (mean of all subjects in each group),"group D 800 mg orally once a day, Day 7 4 Hour",1.90 mg/dL
same,Uric Acid Level (mean of all subjects in each group),"group D 800 mg orally once a day, Day 7 6 Hour",2.23 mg/dL
same,Uric Acid Level (mean of all subjects in each group),"group D 800 mg orally once a day, Day 7 8 Hour",2.21 mg/dL
same,Uric Acid Level (mean of all subjects in each group),"group D 800 mg orally once a day, Day 7 10 Hour",2.20 mg/dL
same,Uric Acid Level (mean of all subjects in each group),"group D 800 mg orally once a day, Day 7 12 Hour",2.10 mg/dL
same,Uric Acid Level (mean of all subjects in each group),"group D 800 mg orally once a day, Day 7 16 Hour",1.78 mg/dL
same,Uric Acid Level (mean of all subjects in each group),"group D 800 mg orally once a day, Day 7 24 Hour",2.26 mg/dL
same,Uric Acid Level (mean of all subjects in each group),"group D 800 mg orally once a day, Day-1 (before dosing)",5.54 mg/dL
same,Uric Acid Level (mean of all subjects in each group),"group D 800 mg orally once a day, Screening (before dosing)",5.68 mg/dL
